# From ChEMBL document CHEMBL4376802, “State of the Art in Respiratory Syncytial Virus Drug Discovery and Development” (J Med Chem, 2019)
# Experiments:
# [1] = test system: Respiratory syncytial virus; test: Antiviral activity against Respiratory syncytial virus; assay type: functional, organism-based; conditions: human respiratory syncytial virus
# [2] = test system: Human orthopneumovirus; test: Antiviral activity against RSV A2 infected in Hep2 cells by CPE reduction assay; assay type: functional, organism-based; conditions: human respiratory syncytial virus, A2, HEp-2
# [3] = Antiviral activity against RSV B-WST infected in Hep2 cells CPE reduction assay; assay type: functional, cell-based; conditions: human respiratory syncytial virus, HEp-2
# [4] = test system: Respiratory syncytial virus; test: Antiviral activity against Respiratory syncytial virus by CPE reduction assay; assay type: functional, organism-based; conditions: human respiratory syncytial virus
# [5] = test system: Respiratory syncytial virus; test: Antiviral activity against recombinant RSV infected in HeLa cells assessed as reduction in eGFP expression after 3 days by laser microscopic analysis; assay type: functional, organism-based; conditions: human respiratory syncytial virus, 72 h
# [6] = test system: Human orthopneumovirus; test: Antiviral activity against RSV A infected in HeLa cells; assay type: functional, organism-based; conditions: human respiratory syncytial virus, type A
# [7] = Antiviral activity against RSV B infected in HeLa cells; assay type: functional, cell-based; conditions: human respiratory syncytial virus
# [8] = Plasma clearance in Beagle dog at 2 mg/ml, iv or 1.2 mg/ml, po measured up to 24 hrs by LC-MS/MS analysis; assay type: ADME, organism-based, Canis lupus familiaris
# [9] = test system: Human orthopneumovirus; test: Antiviral activity against RSV A2 infected in A549 cells incubated for 3 days by cell titer glo-based luminescence assay; assay type: functional, organism-based; conditions: human respiratory syncytial virus, A2, A549, 72 h
# [10] = Inhibition of Respiratory syncytial virus RNA-dependent RNA polymerase
# [11] = test system: Human orthopneumovirus; test: Antiviral activity against RSV type A; assay type: functional, organism-based; conditions: human respiratory syncytial virus
# [12] = test system: Human orthopneumovirus; test: Antiviral activity against RSV type B; assay type: functional, organism-based; conditions: human respiratory syncytial virus
# [13] = test system: Human respirovirus 3; test: Antiviral activity against Human parainfluenza virus 3; assay type: functional, organism-based
# [14] = test system: Hepatitis C virus; test: Antiviral activity against Hepatitis C virus; assay type: functional, organism-based, Hepacivirus hominis
# [15] = test system: Influenza A virus; test: Antiviral activity against influenza A virus; assay type: functional, organism-based
# [16] = test system: Human orthopneumovirus; test: Antiviral activity against RSV A2 infected in Hep2 cells preincubated for 1 hr followed by RSV infection and measured after 3 days by ELISA method; assay type: functional, organism-based; conditions: human respiratory syncytial virus, A2, HEp-2
# [17] = Antiviral activity against RSV B-WST infected in Hep2 cells preincubated for 1 hr followed by RSV infection and measured after 3 days by ELISA method; assay type: functional, cell-based; conditions: human respiratory syncytial virus, HEp-2
# [18] = test system: Human orthopneumovirus; test: Antiviral activity against Respiratory syncytial virus A plaque reduction assay; assay type: functional, organism-based
# [19] = Antiviral activity against Respiratory syncytial virus B plaque reduction assay; assay type: functional, Human respiratory syncytial virus B
# [20] = Oral bioavailability in mouse; assay type: ADME, organism-based; conditions: in vivo
# [21] = Oral bioavailability in dog; assay type: ADME, organism-based, Canis lupus familiaris; conditions: in vivo
# [22] = Oral bioavailability in rat; assay type: ADME, organism-based; conditions: in vivo
# [23] = test system: Human orthopneumovirus; test: Antiviral activity against RSV A2 infected in HAE-derived cells; assay type: functional, organism-based; conditions: human respiratory syncytial virus
# [24] = test system: Human orthopneumovirus; test: Antiviral activity against RSV A2 infected in Hep2 cells assessed as reduction in virus-induced cytopathic effect after 5 days by resazurin dye based PCR analysis; assay type: functional, organism-based; conditions: human respiratory syncytial virus, A2, HEp-2, 120 h
# [25] = Antiviral activity against RSV B-WST infected in Hep2 cells assessed as reduction in virus-induced cytopathic effect after 6 days by resazurin dye based PCR analysis; assay type: functional, cell-based; conditions: human respiratory syncytial virus, HEp-2, 144 h
# [26] = Antiviral activity against RSV type A 1211 infected in Hep2 cells assessed as reduction in virus-induced cytopathic effect after 5 days by resazurin dye based PCR analysis; assay type: functional, cell-based; conditions: human respiratory syncytial virus, 1211, HEp-2, 120 h
# [27] = Antiviral activity against RSV type A Memphis 37 infected in Hep2 cells assessed as reduction in virus-induced cytopathic effect after 5 days by resazurin dye based PCR analysis; assay type: functional, cell-based; conditions: human respiratory syncytial virus, Memphis 37, HEp-2, 120 h
# [28] = Antiviral activity against RSV type A 689 infected in Hep2 cells assessed as reduction in virus-induced cytopathic effect after 5 days by resazurin dye based PCR analysis; assay type: functional, cell-based; conditions: human respiratory syncytial virus, 689, HEp-2, 120 h
# [29] = Antiviral activity against RSV type A 492 infected in Hep2 cells assessed as reduction in virus-induced cytopathic effect after 5 days by resazurin dye based PCR analysis; assay type: functional, cell-based; conditions: human respiratory syncytial virus, 492, HEp-2, 120 h
# [30] = Antiviral activity against RSV type A VAN1160 infected in Hep2 cells assessed as reduction in virus-induced cytopathic effect after 5 days by resazurin dye based PCR analysis; assay type: functional, cell-based; conditions: human respiratory syncytial virus, VAN1160, HEp-2, 120 h
# [31] = Antiviral activity against RSV type B 1276 infected in Hep2 cells assessed as reduction in virus-induced cytopathic effect after 5 days by resazurin dye based PCR analysis; assay type: functional; conditions: human respiratory syncytial virus, 1276, HEp-2, 120 h; pooled result: one value given for 5 cell lines, strains, targets or settings
# [32] = test system: Human orthopneumovirus; test: Antiviral activity against HRSV expressing m-cherry infected in Hep2 cells after 48 hrs post infection by fluorescence based assay; assay type: functional, organism-based; conditions: human respiratory syncytial virus, HEp-2, 48 h
# [33] = Oral bioavailability in BALB/c mouse; assay type: ADME, organism-based; conditions: in vivo
structure (smiles),measurement,setting,value
Cc1cccc2ncnc(N3CCCC[C@H]3c3cc4nc(N5CCC5)cc(N5CCOCC5)n4n3)c12,EC50,[1],10 nM
Cc1cccc(-c2ccc([C@@H]3[C@@H](CO)N4CCCCN(S(=O)(=O)c5cn(C)cn5)C[C@@H]34)cc2)c1,EC50,[2],3300 nM
same,EC50,[3],> 50 µM
CC(C)CCn1c(Cn2c(=O)n(C3CCN(S(C)(=O)=O)CC3)c3ccccc32)nc(=O)c2ccccc21,EC50,[4],5.8 nM
CS(=O)(=O)CCCn1c(Cn2c(=O)n(CC(F)(F)F)c3ccncc32)cc2cc(Cl)ccc21 [RILEMATOVIR],EC50,[5],0.46 to 0.5 nM
same,EC50,[6],0.2 to 20 nM
same,EC50,[7],0.2 to 20 nM
same,clearance,[8],9 mL/min/kg
O=c1n(Cc2cc3cnccc3n2CCCC(F)(F)F)c2cnccc2n1CC(F)(F)F,EC50,[5],0.25 nM
Cc1ccc(NS(C)(=O)=O)c(C(=O)N2CCCC[C@H]2c2cc3nc4c(c(N5CCOCC5)n3n2)CCCC4)c1,EC50,[1],0.56 nM
COC(=O)N1CC2(C1)C(=O)N(Cc1ncc3cc(C)ccc3c1-c1cncnc1)c1ccccc12,EC50,[4],0.2 nM
O=c1n(Cc2cc3cc(Cl)ccc3n2CCCCO)c2cnccc2n1C1CC1,EC50,[5],2 nM
O=c1n(Cc2nc(-c3nccs3)cn2CCCCO)c2cnccc2n1C1CC1,EC50,[9],58 nM
COc1cc(C(=O)NC[C@@](O)(c2cc3c(c(-c4ccc(F)cc4)n2)NC[C@@]3(C)N)C(F)(F)F)ccc1OCCO,EC50,[1],< 1000 nM
same,IC50,[10],< 1000 nM
Nc1ccn([C@@H]2O[C@@](CO)(CCl)[C@@H](O)[C@H]2F)c(=O)n1 [ALS-8112],EC50,[11],90 to 450 nM
same,EC50,[12],90 to 450 nM
same,EC50,[13],1300 nM
same,EC50,[14],> 100 µM
same,EC50,[15],> 100 µM
CC(C)CCn1c(CN2C(=O)C3(CC3)c3ccccc32)nc2cc(CN)ccc21,EC50,[1],31 nM
O=C(NC1CC1)c1cc2c(s1)-c1ccccc1N(C(=O)c1ccc(NC(=O)c3cccnc3N3CCC4(CC3)COC4)cc1)CC2,EC50,[16],10 nM
same,EC50,[17],> 50 µM
NCc1ccc2c(c1)nc(CN1C(=O)C3(CC3)c3ccc(F)cc31)n2CCCC(F)(F)F [SISUNATOVIR],EC50,[18],0.1 to 1.4 nM
same,EC50,[19],0.1 to 1.4 nM
same,bioavailability,[20],46%
same,bioavailability,[21],63%
Cc1ccc([C@]23Cn4cccc4C(=O)N2CCN3C(=O)c2conc2C)cn1,bioavailability,[22],59%
same,bioavailability,[21],100%
same,EC50,[23],8.4 nM
N#Cc1ccc(-c2ccc3c(c2)[C@H]2[C@H](CCN2C(=O)c2ccccc2F)[C@H](CO)N3)cc1,EC50,[2],1400 nM
same,EC50,[3],6.8 µM
CC1(C(=O)N2CC3(C2)C(=O)N(Cc2nc4c(n2CCCC(F)(F)F)CCCC4)c2ccccc23)CC1,EC50,[9],< 100 nM
c1coc(-c2nn3c(Cn4cnc5ccccc54)nnc3s2)c1,EC50,[1],660 nM
CC(C)OC(=O)N1CCC2(CC1)C(=O)N(Cc1nc3cc(Cl)ccc3n1CCCC#N)c1cnccc12,EC50,[4],0.024 nM
Cc1cnc(N2CC3(CCOCC3)C2)c(C(=O)Nc2ccc(C(=O)N3CCc4cc(C(=O)Nc5c(C)cccc5F)sc4-c4ccccc43)cc2)c1 [PC-786],EC50,[24],0.5 nM
same,EC50,[25],27.3 nM
same,EC50,[26],0.46 nM
same,EC50,[27],0.46 nM
same,EC50,[28],0.46 nM
same,EC50,[29],0.46 nM
same,EC50,[30],0.46 nM
same,EC50,[31],20.2 nM
CCc1cc(C(=O)N2CCc3sccc3[C@H]2C)nc2cc(-c3ccc(N4CC[C@H](C(=O)O)C4)cc3F)nn12,EC50,[1],2.75 nM
Cc1cn(Cc2nc3ccccc3s2)c(=O)n(Cc2ccc(-c3csnn3)cc2)c1=O,EC50,[2],1600 nM
same,EC50,[3],> 50 µM
O=C(O)c1cc(C(=O)O)n(Cc2ccc(Cl)cc2Cl)n1,EC50,[32],122 µM
O=C(NC1CC1)c1cc2c(s1)-c1ccccc1N(C(=O)c1ccc(NC(=O)c3ccccc3-c3ccccc3)cc1)CC2,EC50,[16],750 nM
same,EC50,[17],> 20 µM
O=C1Nc2ccccc2C(c2ccccc2)=N[C@@H]1Nc1nnc(-c2ncc(C(F)(F)F)cc2N2CCOCC2)o1 [ZELICAPAVIR],EC50,[1],< 400 nM
NC1CCN(c2ncc(CN3C(=O)C4(CC4)c4ccc(F)cc43)c(NCCCO)n2)C1 (configuration not stated),EC50,[9],34 nM
CC(C)OC(=O)N1CC2(C1)C(=O)N(Cc1nc3cc(Br)ccc3n1CCCO)c1ccccc12,EC50,[4],0.8 nM
same,bioavailability,[33],72%
O=C1N(Cc2nc3cc(Cl)ccc3n2C2CCS(=O)(=O)C2)c2cnccc2C12CC2 (configuration not stated),EC50,[4],1.9 nM
CCc1ccc(NS(C)(=O)=O)c(C(=O)N(C)[C@@H](CC)c2cc3nc(N4CC[C@H](N)C4)c(C)cn3n2)c1,EC50,[1],0.15 nM
CNc1nc(N)nc2c1ncn2[C@@H]1O[C@](C)(CO[P@@](=O)(N[C@@H](C)C(=O)OC(C)C)Oc2ccccc2)[C@@H](O)[C@H]1F,EC50,[23],0.052 nM
Cc1cc2n(Cc3nc(OCC4CCOC4)c4cc(C#N)ccc4n3)c(=O)c3ccccc3n2n1 (configuration not stated),EC50,[4],2.8 nM
